From patent US8859544B2, “Indolizine derivatives, process for the preparation thereof and therapeutic use thereof” (Sanofi, priority 2010, dated 2014)
“And” between values parts separate entries of the source, which are not always exact repeats. Equal values may be shown once. Values belong to the molecule of their own block, whether it stands above or below them.

How the values were obtained:
[1] = tested on: inflammatory angiogenesis in mice; experiment: Model of inflammatory angiogenesis in mice; assay type: in vivo; settings: for % inhibition of the angiogenic parameter (dye content) / % inhibition of the inflammatory parameter (mass of the granuloma): mice, daily oral treatment
Procedure: The model is developed on OF1 female mice (Charles River Laboratories) weighing approximately 25 g, and by groups of 12. The animals are anaesthetized with sodium pentobarbital (60 mg/kg; Sanofi Nutrition Santé animale)) intraperitoneally. An air pocket is created on the back of the mouse by subcutaneous injection of 3 ml of air. […] Seven days later, the mice are again anaesthetized and placed on a hot plate at 40° C. One ml of carmine red (Aldrich Chemicals, 5% in 10% of gelatin) is injected into the tail vein. The animals are then placed at 4° C. for 2-3 hours. The skins are then taken and dried for 24 h in an oven at 56° C. The dry tissues are weighed and placed in 1.8 ml of digestion solution (2 mM dithiothreitol, 20 mM Na2HPO4, 1 mM EDTA, 12 U/ml papain) for 24 h. The dye is then dissolved in 0.2 ml of 5M NaOH. The skins are centrifuged at 2000 rpm for 10 min at ambient temperature. The supernatants are filtered through 0.2 μm cellulose acetate membranes. The filtrates are read in a spectrophotometer at 492 nm against a carmine red calibration range. Two parameters are studied: the dry weight of the granuloma and the amount of dye after digestion of the tissues. The results are expressed as mean values (±sem). The differences between the groups are tested with an ANOVA followed by a Dunnett's test, of which the reference group is the “solvent control” group.
The FGF-R antagonists are evaluated between 1 and 50 mg/kg using methylcellulose/tween (0.6% v/v) as vehicle or any other vehicle which allows the active ingredient to be solubilized. The molecules are administered daily, orally (one or two times a day) by gavage.

[2] = tested on: HUVEC cells stimulated with FGF-2; experiment: FGF-2-induced in vitro proliferation of HUVEC cells; assay type: cell-based, human; settings: inhibition of proliferation as percentage of the control
Procedure: To do this, HUVEC human vein endothelial cells (promocell, C-12200) are seeded at a rate of 5000 cells per well of a 96-well plate (Biocoat collagen I cellware, Becton Dickinson 354650) in 100 μl of RPMI 1640 deprivation medium (Invitrogen, 31872-025) supplemented with 0.5% or 1% FCS, 2 mM glutamine, 1× sodium pyruvate (Invitrogen, 11360-039) and 1×NEAA (Invitrogen, 11140-035), overnight at 37° C. in the presence of 5% CO2. The following morning, the medium is suctioned-off and replaced with 50 μl of deprivation medium containing the antagonists at a 2× concentration, to which are added 50 μl of FGF-2 (R&D systems, 133-FB-025; Invitrogen, PHG0026) at 0.2 ng/ml (i.e. 2×). After 48 or 72 h, 100 μl of Cell Titer-GLOW Luminescent Cell Viability Assay (Promega, G7571) are added for 10 min in order to measure, by means of a luminometer, the amount of ATP present in the cells and which is in relation to the number of cells per well corresponding to the cell proliferation.
The antagonists of the present invention are considered to be active as long as they are capable of inhibiting FGF-2-induced proliferation of HUVEC cells at a dose less than or equal to 300 nM.

[3] = tested on: HUVEC cells stimulated with FGF-2; experiment: FGF-2-induced in vitro angiogenesis of HUVEC cells; assay type: cell-based, human; settings: as a percentage of the control
Procedure: To do this, matrices composed of matrigel (growth factor reduced matrigel, Becton Dickinson 356230) and collagen (rat tail collagen type I, Becton Dickinson 354236) are deposited, at a rate of 160 μl, into each chamberslide well (Biocoat Cellware collagen, Type I, 8-well culturesides: Becton Dickinson 354630), or 60 μl per well of 96-well plates (Biocoat collagen I cellware, Becton Dickinson 354407). The matrix is prepared by mixing ⅓ of matrigel, 1 mg/ml final concentration of collagen, NaOH (0.1N) (0.026× the volume of collagen in μl) and 1×PBS, and the volume is then adjusted with water. The gels are kept at 37° C. for 1 hour so as to allow them to polymerize. Next, the human vein endothelial cells (HUVECs ref: C-12200-Promocell) were seeded at 15×10^3 or 6×10^3 cells/well in 400 or 120 μl (for the 8-well or 96-well plates respectively) of EBM medium (Clonetics C3121)+2% FBS+10 μg/ml hEGF. They were stimulated with 1 or 3 ng/ml of FGF-2 (R&D systems, 133-FB-025; Invitrogen, PHG0026) for 24 h at 37° C. in the presence of 5% CO2. After 24 hours, the length of the network of microtubules formed was measured using a computer-assisted image analysis system (Imagenia Biocom, Courtaboeuf, France) and the total length of the pseudotubules in each well was determined. The average total length of the microcapillary network was calculated in μm for each condition corresponding to the average of 6 replicates.
Stimulation with FGF2 makes it possible to induce the formation of new tubules. An FGF-R antagonist is considered to be active in this test as long as it is capable of partially inhibiting this angiogenesis at a dose less than or equal to 300 nM.

Structure (SMILES): COc1c(C)c(C(=O)c2ccc3nc(C)[nH]c(=O)c3c2)n2ccccc12 [Compound No. 15, 6-[(1-Methoxy-2-methylindolizin-3-yl)carbonyl]-2-methylquinazolin-4(3H)-one]
% inhibition of the angiogenic parameter (dye content) ([1]; 30 mg/kg): 21%
% inhibition of the inflammatory parameter (mass of the granuloma) ([1]; 30 mg/kg): 21%
melting point: 290 °C and 287 °C

Structure (SMILES): CCOC(=O)COn1c(=O)[nH]c2ccc(C(=O)c3c(C)c(OC)c4ccccn34)cc2c1=O [Compound No. 34, Ethyl({6-[(1-methoxy-2-methylindolizin-3-yl)carbonyl]-2,4-dioxo-1,4-dihydroquinazolin-3(2H)-yl}oxy)acetate]
melting point: 230 °C

Structure (SMILES): COc1c(C)c(C(=O)c2ccc3[nH]c(=O)n(CC(=O)N(C)C)c(=O)c3c2)n2ccccc12 [Compound No. 35, 2-{6-[(1-Methoxy-2-methylindolizin-3-yl)carbonyl]-2,4-dioxo-1,4-dihydroquinazolin-3(2H)-yl}-N,N′-dimethylacetamide]
% inhibition of the angiogenic parameter (dye content) ([1]; 30 mg/kg): 36%
% inhibition of the inflammatory parameter (mass of the granuloma) ([1]; 30 mg/kg): 36%
dye content corresponding to the angiogenesis ([1]; 10 or 30 mg/kg, after one week of daily treatment): significantly reduce

Structure (SMILES): COc1c(C)c(C(=O)c2ccc3c(c2)c(=O)c(C(=O)[O-])cn3C)n2ccccc12.[Na+] [Compound No. 62, Sodium salt of 6-[(1-methoxy-2-methylindolizin-3-yl)carbonyl]-1-methyl-4-oxo-1,4-dihydroquinoline-3-carboxylic acid]
% inhibition of the angiogenic parameter (dye content) ([1]; 10 mg/kg): 43%
% inhibition of the inflammatory parameter (mass of the granuloma) ([1]; 10 mg/kg): 38%

Structure (SMILES): CNC(=O)c1cn(C)c2ccc(C(=O)c3c(C)cc4ccccn34)cc2c1=O [Compound No. 105, N-1-Dimethyl-6-[(2-methylindolizin-3-yl)carbonyl]-4-oxo-1,4-dihydroquinoline-3-carboxamide]
Percentage inhibition of angiogenesis (%) ([2]; 30 nM): 14%
Percentage inhibition of angiogenesis (%) ([2]; 300 nM): 123%
Percentage inhibition of angiogenesis (%) ([3]; 3 nM): 25%
Percentage inhibition of angiogenesis (%) ([3]; 30 nM): 105%

More lines, main results first:

melting point: 176 °C
Structure (SMILES): COc1c(C)c(C(=O)c2ccc3[nH]c(=O)n(Cc4nc(C)no4)c(=O)c3c2)n2ccccc12 [Compound No. 36, 6-[(1-Methoxy-2-methylindolizin-3-yl)carbonyl]-3-[(3-methyl-1,2,4-oxadiazol-5-yl)methyl]quinazoline-2,4(1H,3H)-dione]

melting point: 215 °C
Structure (SMILES): CCCn1c(=O)[nH]c2ccc(C(=O)c3c(C)c(OCCOC)c4ccccn34)cc2c1=O [Compound No. 48, 6-{[1(2-Methoxyethoxy)-2-methylindolizin-3-yl]carbonyl}-3-propylquinazoline-2,4(1H,3H)-dione]

melting point: 220 °C
Structure (SMILES): COc1c(C)c(C(=O)c2ccc3[nH]c(=O)n(N)c(=O)c3c2)n2ccccc12 [Compound No. 51, 3-Amino-6-[(1-methoxy-2-methylindolizin-3yl)carbonyl]quinazoline-2,4(1H,3H)-dione]

melting point: 276 °C
Structure (SMILES): COc1c(C)c(C(=O)c2ccc3c(c2)c(=O)n(CC(=O)N(C)C)c(=O)n3C)n2ccccc12 [Compound No. 68, 2-{6-[(1-Methoxy-2-methylindolizin-3-yl)carbonyl]-1-methyl-2,4-dioxo-1,4-dihydroquinazolin-3(2H)-yl}-N,N-dimethylacetamide]

melting point: 324 °C
Structure (SMILES): CNC(=O)c1c[nH]c2ccc(C(=O)c3c(C)c(OC)c4ccccn34)cc2c1=O [Compound No. 96, 6-[(1-Methoxy-2-methylindolizin-3-yl)carbonyl]-N-methyl-4-oxo-1,4-dihydroquinoline-3-carboxamide]
inhibition at 0.03 µM ([2]; Homo sapiens, 30 nM, read-out: Percentage inhibition of angiogenesis (%)): 123%
inhibition at 0.3 µM ([2]; Homo sapiens, 300 nM, read-out: Percentage inhibition of angiogenesis (%)): 129%
inhibition at 0.003 µM ([3]; Homo sapiens, 3 nM): 123%
inhibition at 0.03 µM ([3]; Homo sapiens, 30 nM): 129%
